Experimental data published in patent US9198909B1, “Materials and methods for inhibiting mamalian S-nitrosoglutathione reductase” (Indiana University Research and Technology Corporation, priority 2007, dated 2015).

Tested on: RAW 264.7 cells
Assay: Nitroso species accumulation in RAW 264.7 cells (triiodide chemiluminescence)
Assay type: cell-based, rat
Experimental: Referring now to FIG. 3, briefly, RAW 264.7 cells were incubated with 500 μM GSNO alone (γ) or in presence of 33 μM Compound 6 (◯) or 7 (Δ) or 8 (▪). At indicated times or at 4 hr (in case of B), the cells were lysed and the lysate was analyzed for protein and nitroso species concentration by Bradford and chemiluminescence assay, respectively. For details, see Materials and methods. Data represents mean±SE (n=3−12).
RAW 264.7 cells were cultured in DMEM medium supplemented with 10% FBS, 200 U/ml of penicillin and 200 μg/mL of streptomycin. The cells were incubated at 37° C. in an atmosphere containing 5% CO2 and 95% air. For the experiments, 1-2×10^6 cells were plated in six-well plates a day before the experiment. On the day of the assay the medium was replaced with 3 ml of fresh medium and the cells were treated with compounds for a predetermined length of time. Following the incubation period, the cells were washed three times with PBS and scraped off the plate in 250 μl of lysis buffer (50 mM potassium phosphate pH 7.0 containing 50 mM NEM and 1 mM EDTA). Cells were lysed by sonication using a micro tip probe (three pulses of 30% duty cycle; 2 output control on a Fisher Sonicator). Cell debris was pelleted by centrifugation (10 min at 16,000 g) and the cell lysate was analyzed for protein concentration using the Bio-Rad dye-binding protein assay. The concentration of nitroso compounds in the cell lysate was determined using the triiodide based chemiluminescence method using a Sievers 280 nitric oxide analyzer. Briefly, cell lysates were treated with 15% v/v of a sulfanilamide solution (5% w/v in 0.2 M HCl) and kept at room temperature for 5 min to remove nitrite. The triodide mixture was prepared fresh every day as described earlier and kept at 60° C. in the reaction vessel. The concentration of nitroso species was derived from a standard curve generated using GSNO. For determining the amount of the small size nitroso compounds in the cell lysate, a 5 kDa-cutoff Amicon ultra filtration unit was used according to the supplier's instructions. The amount of s-nitrosothiols in the cell lysate was determined by treating initially passing the cell lysate through a microspin column and treating the eluate with 5 mM HgCl2 before determining the nitroso compound concentration using chemiluminescence. For some experiments the cells were pretreated with the compounds for 16 hours prior to the day of experiment.

N#Cc1ccccc1CSc1nc2ccsc2c(=O)n1Cc1ccc(C(=O)O)cc1 [Compound 8]
nitrosylation, fold higher than Compound 7 (33 μM initial concentration, 500 μM GSNO, 4 hr): 3 fold | decrease in nitrosylated species relative to amounts at 4 hours (exposure up to 24 hours, data not shown): 80%
